In patent US11827646B2, “Compounds for treating spinal muscular atrophy” (Hoffmann-La Roche Inc., priority 2014, dated 2023):

Columns and labels:
[1] = tested on: SMN protein in SMA patient fibroblast cells (GM03813); experiment: SMN protein assay in cultured cells (SMN HTRF); assay type: cell-based; conditions: Homo sapiens, SMA Type 1 patient fibroblasts, 48 hours; for EC (1.5-fold): 7-point concentration curve, 1.5 times SMN protein vs vehicle, read-out: EC1.5x SMN protein (EC1.5x concentration for SMN protein expression); for maximal fold induction: fold increase relative to vehicle control, read-out: max. fold increase of SMN protein
Excerpt: The term “EC1.5x concentration for SMN protein expression” (or “EC1.5x SMN protein”) is defined as that concentration of test compound that is effective in producing 1.5 times the amount of SMN protein in an SMA patient fibroblast cell compared to the amount produced from the vehicle control.
The SMN HTRF (homogeneous time resolved fluorescence) assay is used to quantify the level of SMN protein in SMA patient fibroblast cells treated with test compounds. Materials used and respective sources are listed below in Table 4.
Cells are thawed and cultured in DMEM-10% FBS for 72 hours. Cells are trypsinized, counted and re-suspended to a concentration of 25,000 cells/mL in DMEM-10% FBS. The cell suspensions are plated at 5,000 cells per well in a 96 well microtiter plate and incubated for 3 to […]. Test compounds are serially diluted 3.16-fold in 100% DMSO to generate a 7-point concentration curve. 1 μL of test compound solution is transferred to cell-containing wells and cells are incubated for 48 hours in a cell culture incubator (37° C., 5% CO2, […]). Triplicate samples are set up for each test compound concentration. After 48 hours, the supernatant is removed from the wells and 25 μL of the RIPA lysis buffer, containing protease inhibitors, is added to the wells and incubated with shaking at room temperature for 1 hour. 25 μL of the diluent is added and then 35 μL of the resulting lysate is transferred to a 384-well plate, where each well contains 5 μL of the antibody solution (1:100 dilution of anti-SMN d2 and anti-SMN kryptate in SMN reconstitution buffer). The plate is centrifuged for 1 minute to bring the solution to the bottom of the wells, then incubated overnight at room temperature. Fluorescence for each well of the plate at 665 nm and 620 nm is measured on an EnVision multilabel plate reader (Perkin-Elmer).
The normalized fluorescence signal is calculated for each sample, Blank and vehicle control well by dividing the signal at 665 nm by the signal at 620 nm. Normalizing the signal accounts for possible fluorescence quenching due to the matrix effect of the lysate. The ΔF value (a measurement of SMN protein abundance as a percent value) for each sample well is calculated by subtracting the normalized average fluorescence for the Blank control wells from the normalized fluorescence for each sample well, then dividing this difference by the normalized average fluorescence for the Blank control wells and multiplying the resulting value by 100. The ΔF value for each sample well represents the SMN protein abundance from test compound-treated samples. The ΔF value for each sample well is divided by the ΔF value for the vehicle control wells to calculate the fold increase in SMN protein abundance relative to the vehicle control. Table 5 provides EC1.5x concentrations for SMN protein expression that was obtained from the 7-point concentration data generated according to the above procedure for particular compounds of the present invention.
Table 6 provides the maximum fold increase of SMN protein that was obtained from the 7-point concentration data generated according to the above procedure for particular compounds of the present invention

[2] = tested on: full length SMN2 minigene mRNA (HEK293H cells stably transfected with SMN2-A minigene); experiment: SMN2 minigene mRNA splicing RT-qPCR assay in cultured cells; assay type: cell-based; conditions: Homo sapiens, HEK293-H, 24 hours, 7-point concentration curve, 1.5-fold increase relative to vehicle, read-out: EC1.5x minigene (EC1.5x concentration for production of full length SMN2 minigene mRNA)
Excerpt: The term “EC1.5x concentration for production of full length SMN2 minigene mRNA” (or “EC1.5x minigene”) is defined as that concentration of test compound that 1 s effective m increasing the amount of full length SMN2 minigene mRNA to a level 1.5-fold greater relative to that in vehicle-treated cells.
The reverse transcription-quantitative PCR-based (RT-qPCR) assay is used to quantify the level of the full length SMN2 minigene (referred to herein by the term “FL SMN2mini”) mRNA containing SMN2 exon 7 in a HEK293H cell line stably transfected with said minigene and treated with a test compound. Materials used and respective sources are listed below in Table 1.
The SMN2-A minigene construct was prepared as described in International Patent Application WO2009/151546A1 page 145 paragraph [00400] to page 147 paragraph [00412](incl. FIG. 1 and FIG. 3 therein).
HEK293H cells stably transfected with the SMN2-A minigene construct (10,000 cells/well) are seeded in 200 μL of cell culture medium (DMEM plus 10% FBS, with 200 μg/mL hygromycin) in 96-well flat-bottom plates and the plate is immediately swirled to ensure proper dispersal of cells and the formation of an even monolayer of cells. Cells are allowed to attach for 6 hours. Test compounds are serially diluted 3.16-fold in 100% DMSO to generate a 7-point concentration curve. A solution of test compound (1 μL, 200× in DMSO) is added to each cell-containing well and the plate is incubated for 24 hours in a cell culture incubator (37° C., 5% CO2, 100% relative humidity). 2 replicates are prepared for each test compound concentration. The cells are then lysed in the Cells-To-Ct lysis buffer and the lysate is stored at −80° C.
Full length SMN2-A minigene and GAPDH mRNA are quantified using the primers and probes referenced in Table 2. Primer SMN Forward A (SEQ ID NO.1) hybridizes to a nucleotide sequence in exon 7 (nucleotide 22 to nucleotide 40), primer SMN Reverse A (SEQ ID NO.2) hybridizes to a nucleotide sequence in the coding sequence of Firefly luciferase, SMN Probe A (SEQ ID NO.3) hybridizes to a nucleotide sequence in exon 7 (nucleotide 50 to nucleotide 54) and exon 8 (nucleotide 1 to nucleotide 21). The combination of these three oligonucleotides detects only SMN1 or SMN2 minigenes (RT-qPCR) and will not detect endogenous SMN1 or SMN2 genes.
The SMN forward and reverse primers are used at final concentrations of 0.4 μM. The SMN probe is used at a final concentration of 0.15 μM. The GAPDH primers are used at final concentrations of 0.2 μM and the probe at 0.15 μM.
The SMN2-minigene GAPDH mix (15 μL total volume) is prepared by combining 7.5 μL of 2×RT-PCR buffer, 0.4 μL of 25×RT-PCR enzyme mix, 0.75 μL of 20×GAPDH primer-probe mix, 4.0075 μL of water, 2 μL of 10-fold diluted cell lysate, 0.06 μL of 100 µM SMN forward primer, 0.06 μL of 100 μM SMN reverse primer, and 0.225 μL of 100 μM SMN probe.
PCR is carried out at the following temperatures for the indicated time: Step 1: 48° C. (15 min); Step 2: 95° C. (10 min); Step 3: 95° C. (15 sec); Step 4: 60° C. (1 min); then repeat Steps 3 and 4 for a total of 40 cycles.
Each reaction mixture contains both SMN2-A minigene and GAPDH primers/probe sets (multiplex design), allowing simultaneous measurement of the levels of two transcripts.
The increase in the abundance of the FL SMN2mini mRNA relative to that in cells treated with vehicle control is determined from real-time PCR data using a modified ΔΔCt method (as described in Livak and Schmittgen, Methods, 2001, 25:402-8). The amplification efficiency E is calculated from the slope of the amplification curve for FL SMN2mini and GAPDH individually. The abundance of FL SMN2mini and GAPDH mRNA are then calculated as (1+E)^−Ct, where Ct is the threshold value for each amplicon. The abundance of FL SMN2mini mRNA is normalized to GAPDH mRNA abundance. […]

Cc1cn2nc(-c3cc(=O)n4cc(N5CCN6CCC[C@]6(C)C5)ccc4n3)ccc2n1 [Example 17, 7-[(8aR)-8a-methyl-1,3,4,6,7,8-hexahydropyrrolo[1,2-a]pyrazin-2-yl]-2-(2-methylimidazo[1,2-b]pyridazin-6-yl)pyrido[1,2-a]pyrimidin-4-one]
EC (1.5-fold) [1]: 0.0202 µM | maximal fold induction [1]: 1.98 | EC (1.5-fold) [2]: 0.0064 µM

Cc1cn2nc(-c3cc(=O)n4cc(N5CCNC6(CC6)C5)cc(C)c4n3)cc(C)c2n1 [Example 28, 7-(4,7-diazaspiro[2.5]octan-7-yl)-2-(2,8-dimethylimidazo[1,2-b]pyridazin-6-yl)-9-methyl-pyrido[1,2-a]pyrimidin-4-one]
EC (1.5-fold) [1]: 0.0497 µM | maximal fold induction [1]: 1.72 | EC (1.5-fold) [2]: 0.005 µM

Cc1cn2nc(-c3cc(=O)n4cc(N5CCCNCC5)ccc4n3)ccc2n1 [Example 13, 7-(1,4-diazepan-1-yl)-2-(2-methylimidazo[1,2-b]pyridazin-6-yl)pyrido[1,2-a]pyrimidin-4-one]
EC (1.5-fold) [1]: 0.003 µM | maximal fold induction [1]: 1.91 | EC (1.5-fold) [2]: 0.005 µM

Cc1cn2nc(-c3cc(=O)n4cc(N5CCNC(C)(C)C5)cc(C)c4n3)ccc2n1 [Example 36, 7-(3,3-dimethylpiperazin-1-yl)-9-methyl-2-(2-methylimidazo[1,2-b]pyridazin-6-yl)pyrido[1,2-a]pyrimidin-4-one]
EC (1.5-fold) [1]: 0.0344 µM | maximal fold induction [1]: 1.77 | EC (1.5-fold) [2]: 0.005 µM

Cc1cn2nc(-c3cc(=O)n4cc(N5C[C@@H](C)N[C@@H](C)C5)cc(C)c4n3)cc(C)c2n1 [Example 26, 2-(2,8-dimethylimidazo[1,2-b]pyridazin-6-yl)-7-[(3R,5S)-3,5-dimethylpiperazin-1-yl]-9-methyl-pyrido[1,2-a]pyrimidin-4-one]
EC (1.5-fold) [1]: 1.23 µM | maximal fold induction [1]: 1.52

Cc1cn2nc(-c3cc(=O)n4cc(N5CCN[C@@H](C)C5)ccc4n3)ccc2n1 [Example 11, 2-(2-methylimidazo[1,2-b]pyridazin-6-yl)-7-[(3S)-3-methylpiperazin-1-yl]pyrido[1,2-a]pyrimidin-4-one]
EC (1.5-fold) [1]: 0.007 µM | maximal fold induction [1]: 1.9 | EC (1.5-fold) [2]: 0.0014 µM

Cc1cn2nc(-c3cc(=O)n4cc(N5CC[C@@H](N6CCCC6)C5)ccc4n3)cc(C)c2n1 [Example 18, 2-(2,8-dimethylimidazo[1,2-b]pyridazin-6-yl)-7-[(3R)-3-pyrrolidin-1-ylpyrrolidin-1-yl]pyrido[1,2-a]pyrimidin-4-one]
EC (1.5-fold) [1]: 0.025 µM | maximal fold induction [1]: 1.75 | EC (1.5-fold) [2]: 0.0036 µM

Cc1cn2nc(-c3cc(=O)n4cc(N5C[C@H](C)N[C@@H](C)C5)cc(C)c4n3)ccc2n1 [Example 38, 7-[(3S,5S)-3,5-dimethylpiperazin-1-yl]-9-methyl-2-(2-methylimidazo[1,2-b]pyridazin-6-yl)pyrido[1,2-a]pyrimidin-4-one]
EC (1.5-fold) [1]: 0.0031 µM | maximal fold induction [1]: 1.85 | EC (1.5-fold) [2]: 0.0003 µM

Cc1cn2nc(-c3cc(=O)n4cc(N5CCN6CCC[C@@]6(C)C5)ccc4n3)cc(C)c2n1 [Example 5, 7-[(8aS)-8a-methyl-1,3,4,6,7,8-hexahydropyrrolo[1,2-a]pyrazin-2-yl]-2-(2,8-dimethylimidazo[1,2-b]pyridazin-6-yl)pyrido[1,2-a]pyrimidin-4-one]
EC (1.5-fold) [1]: 0.0041 µM | maximal fold induction [1]: 1.71 | EC (1.5-fold) [2]: 0.0006 µM

Cc1cn2nc(-c3cc(=O)n4cc(N5CCN[C@@H](C)C5)ccc4n3)cc(C)c2n1 [Example 8, 2-(2,8-dimethylimidazo[1,2-b]pyridazin-6-yl)-7-[(3S)-3-methylpiperazin-1-yl]pyrido[1,2-a]pyrimidin-4-one]
EC (1.5-fold) [1]: 0.0059 µM | maximal fold induction [1]: 1.85 | EC (1.5-fold) [2]: 0.0003 µM

Cc1cn2nc(-c3cc(=O)n4cc(N5CCN(C)CC5)ccc4n3)ccc2n1 [Example 1, 2-(2-methylimidazo[1,2-b]pyridazin-6-yl)-7-(4-methylpiperazin-1-yl)pyrido[1,2-a]pyrimidin-4-one]
EC (1.5-fold) [1]: 0.0108 µM | maximal fold induction [1]: 1.84 | EC (1.5-fold) [2]: 0.0035 µM

Cc1cn2nc(-c3cc(=O)n4cc(N5CCN6CCC[C@]6(C)C5)ccc4n3)cc(C)c2n1 [Example 6, 7-[(8aR)-8a-methyl-1,3,4,6,7,8-hexahydropyrrolo[1,2-a]pyrazin-2-yl]-2-(2,8-dimethylimidazo[1,2-b]pyridazin-6-yl)pyrido[1,2-a]pyrimidin-4-one]
EC (1.5-fold) [1]: 0.011 µM | maximal fold induction [1]: 1.84 | EC (1.5-fold) [2]: 0.0028 µM

Cc1cn2nc(-c3cc(=O)n4cc(N5CCNC6(CC6)C5)ccc4n3)ccc2n1 [Example 19, 7-(4,7-diazaspiro[2.5]octan-7-yl)-2-(2-methylimidazo[1,2-b]pyridazin-6-yl)pyrido[1,2-a]pyrimidin-4-one]
EC (1.5-fold) [1]: 0.0298 µM | maximal fold induction [1]: 1.83

Cc1cn2nc(-c3cc(=O)n4cc(N5CCNC(C)(C)C5)cc(C)c4n3)cc(C)c2n1 [Example 27, 2-(2,8-dimethylimidazo[1,2-b]pyridazin-6-yl)-7-(3,3-dimethylpiperazin-1-yl)-9-methyl-pyrido[1,2-a]pyrimidin-4-one]
EC (1.5-fold) [1]: 0.127 µM | maximal fold induction [1]: 1.57
